Results published in US20260242390A1, “TOTAL SYNTHESES OF PORTIMINE A AND ANALOGUES THEREOF AS SMALL MOLECULE MODULATORS OF NMD3” (priority 2023, published 2026).
“Also recorded” adds a separate entry of the source.

System: primary human PBMCs
Assay: Toxicity to primary human PBMCs
Assay type: cell-based
Details: PBMCs 25k per well, 0.23 pM to 1 uM, 12 hr, compared to Jurkat
Protocol: Structurally related negative control ePA and PB are non-toxic in all cell types in the current concentrate range. PBMCs (25k per well), Jurkat (10k per well). Compound concentration was increased from […] to 1 uM, 4× per gradient, PBMCs using primary B cell media from Wesley (heat deactivated), and Jurkat using normal RPMI media and incubated for 12 hr.
FIG. 3. Initial SAR studies: Assessing activity of PAL functionalized PTMA analogs. […] (A) PA and Ph-PA show less toxic to healthy PBMCs compared to Jurkat cells. […] (B) Immunoblot of caspase-3 in Jurkat and PBMCs with indicated conditions.
• 1) Portimine A and its functional analogs show stereo-selective acute toxicity in cancer cells (FIG. 1). […] (B) Structure of portimine related analogs: phenyl-portimine A (Ph-PA, 36) and epi-portimine A (ePA, 38). Structure of fully functionalized portimine A-based epimeric probe pair: portimine A-diazirine-alkyne (PA-DA, 35-2) and epi-portimine A-diazirine-alkyne (ePA-DA, 35-1). (C) Cell viability analysis of portimine A and analogs. Jurkat cells were treated with increasing concentrations of portimine A and analogs for 24 hours. All presented data as mean of biological replicated experiments (n=3). […] Jurkat cells were treated with portimine A or analogs for 12 hours at 10 nM. […] Structurally related negative control ePA and PB are non-toxic in all cell types in the current concentrate range. PBMCs (25k per well), Jurkat (10k per well). […] Cell cycle analysis in Jurkat cells (FIG. 2). Jurkat cells were treated with 10 nM of indicated compounds for 24 hours, and propodium iodide was used to identify different stages of cells by flow cytometry. […] (A) PA and Ph-PA show less toxic to healthy PBMCs compared to Jurkat cells. […] (B) Immunoblot of caspase-3 in Jurkat and PBMCs with indicated conditions. […] (A) Pharmacokinetic studies of mouse intraperitoneal (i.p.) and oral (p.o.) administration for portimine (n=3). […] Impact of PA [0.3 or 1 mg/kg intraperitoneally] on MC38 tumor growth in WT mice (n=6). (C) Kaplan-Myer survival curve of WT MC38 tumor-bearing mice (n=6) after treatment with PA as described in (D). Mice were euthanized when tumor area exceeded 2000 mm^3. Statistical analysis was performed using ANOVA analysis followed by multiple comparisons test, * p≤0.05. Treatment condition: Jurkat (60 M per condition); PA-DA/ePA-DA concentration: 0.5 uM, PA or ePA: 5 uM; Incubate with probe with or without competitors (PA, ePA) for 30 min; UV irradiated for 20 min. (0.5 uM PA-DA add a no-UV condition), Standard pulldown & biotin-enrichment and western blot analysis (Elute condition: 2× sample buffer+500 uM biotin, boil for 20 mins); Primary antibody NMD3 (ProteinTech, 1:150), Actin (BioRad, 1:10000). […] Chemical proteomic profiling with PA-DA in Jurkat cells (A, B, C, G) and HCC1806 cells (D, E, F, H) show NMD3 is the primary target candidate of portimine A. Volcano plot in panels A and D show protein competition in cells treated with active photoaffinity probe PA-DA (500 nM) and DMSO or the active competitor portimine A (PA, […]), dotted lines indicate threshold of fold change <4, p-value>0.05. […] (I, J) Confirmation of PA-DA engagement of NMD3 in Jurkat and HCC1806 cells. […] Treatment condition: Jurkat (5M per well). Portimine A concentration: 2 nM-1000 nM; In total treat cell for 12 hours. […] Protein degradation of p53, Mcl1, Bid, Bim, Noxa can be rescued by MG132 or Epoxomicin. (B) NMD3 mRNA increased after PA treatment, but not ePA control compound. […]

Row | Structure (SMILES) | toxicity to healthy / primary human PBMCs | toxicity to healthy / primary human PBMCs (listed as Portimine A)
1 | C=CC1=C[C@@H]2[C@@H]3O[C@]4(CC[C@H](O4)C(C)C[C@@H](O)C3=O)CC(O)C3=NCC[C@@]32CC1 (some centres unmarked) [PA, portimine A] | substantially less toxic | non-toxic; also recorded: do not induce apoptosis or affect cell viability
2 | C=CC1=C[C@@H]2[C@@H]3OC4(CC[C@H](O4)C(C)C[C@@H](O)C3=O)CC(=O)C3=NCC[C@@]32CC1 (some centres unmarked) [PB, portimine B] | non-toxic; also recorded: non-toxicity | 
3 | CC1C[C@@H](O)C(=O)[C@H]2O[C@]3(CC[C@@H]1O3)CC(O)C1=NCC[C@@]13CCC(c1ccccc1)=C[C@H]23 (some centres unmarked) [Ph-PA, phenyl-portimine A] | substantially less toxic | 
4 | C=CC1=C[C@@H]2[C@@H]3O[C@]4(CC[C@H](O4)C(C)C[C@@H](O)C3=O)C[C@@H](O)C3=NCC[C@@]32CC1 (stereo partly drawn) [ePA, epi-portimine A] | non-toxic; also recorded: non-toxicity | 
